The assay relates to core clock and gluconeogenic gene mRNAs in liver. Put plainly: 24 hour gene expression study, liver mRNA by RT-qPCR, C57Bl/6J DIO mice. The assay is classed as in vivo, mouse. The conditions noted are these: 50 mg/kg PO BID, 5 doses. The source says: Male C57Bl/6J DIO mice were purchased at 17 weeks of age (The Jackson Laboratory, Sacramento, Calif.) and acclimated for a 2 week period before being used for the experiment. Overall group size was 15 per treatment, divided into 5 time-points to give a final group size of 3 mice.
In total, each mouse received 5 doses of compound over the course of the experiment. Mice were weighed and randomly assigned to each treatment based on weight the evening before the commencement of the study. Beginning on Day 3 at 3:00 PM, a group of animals from the vehicle and Compound 72-treated groups were euthanized using CO2 asphyxiation, 50 mg of liver, epididymal fat, and skeletal muscle, respectively, were excised and placed in tube containing 500 μl of RNALater. This procedure took place for the remainder of the time-point groups at their given harvest times. Plasma samples were also taken for each animal and frozen, to be used for later measurement of compound levels.
E.Z.N.A.® HP Total RNA Isolation Kits (R6812-01 and the protocol described in the Manual, Revised 2010) were utilized to prepare and isolate RNA from the liver samples. To prepare the RNA samples, 10-30 mg of sample was removed from RNA-Later and placed in a 1.5 ml microfuge tube. GTC lysis buffer (700 μl) was added to the tissue, which was homogenized with a rotor-stator homogenizer (e.g. Tissue-Tearor, Model #985370 BioSpec Products with 4.5 mm probe, Cat. #985370-04), and then centrifuged at full speed (≧13,000×g) for 5 minutes. The cleared supernatant was transferred by pipetting to a DNA Clearance Column Pre-inserted in a 2 mL Collection Tube. The assembled column was centrifuged at 13,000×g for 1 minute, and the flow-through was saved. An equal volume (700 μl) of 70% ethanol was added to the lysate and mixed. The sample was then applied to a HiBind RNA spin column placed into a 2 ml collection tube, which was centrifuged at 10,000×g for 60 seconds at room temperature. RNA Wash Buffer I (250 μl) was added by pipetting directly onto a new HiBind RNA column inserted in a 2 ml collection tube. The assembled column was centrifuged at 10,000×g for 60 seconds. The RNA column was placed into a new 2 ml collection tube. DNase I stock solution is pipetted (75 μl) directly onto the surface of the HiBind RNA resin in each column (Using DNAse Digestion with RNase Free DNase Set (E1091): for each HiBind RNA column, the DNase I stock solution was prepared as followed: E.Z.N.A.® DNase I Digestion Buffer 73.5 μl, RNase Free DNase I (20 Kunitz/μl) 1.5 μl=Total Volume 75 μl.). The column with bound RNA was incubated at room temperature (25-30° C.) for 15 minutes. RNA Wash Buffer I (500 μl) was added to the column and placed on a bench top for 2 minutes. After centrifuging at 10,000×g for 60 seconds, discarding the flow-through, 500 μl of RNA Wash Buffer II was added and centrifuged at 10,000×g for 60 seconds. Another 500 μl of RNA Wash Buffer II was added and the column assembly was centrifuged at 10,000×g for 60 seconds. The column was centrifuged for 2 minutes at maximum speed to completely dry the HiBind matrix. The column was placed in a clean 1.5 ml microcentrifuge tube and 40-70 μl of molecular biology grade water is added. […]
RediPlate 96 RiboGreen RNA Quantification Kit (Invitrogen) RediPlate standard curve was prepared by transferring 20 μl reconstituted RNA standard to a RediPlate well reconstituted in 180 μl RediPlate TE buffer. […]
(In general: Quantitative PCR measures a nucleic acid by following its amplification.)

For the molecule `O=C1NCCN1CC(O)Cn1c2ccc(F)cc2c2cc(F)ccc21` (centres unmarked) [Compound 72, 1-(3-(3,6-difluoro-9H-carbazol-9-yl)-2-hydroxypropyl)imidazolidin-2-one], where the note is “at ZT8 and 32 hours after ZT0 vs vehicle”, the “Bmal1 mRNA in liver” value is “substantially increased”. Besides, the “Per2 mRNA in liver” value (over 24 hours vs vehicle) is on record as “suppressed”. In addition, where the note is “vs vehicle”, the “Cry1 mRNA in liver” value is “suppressed during its peak of expression during the dark period”; the “Cry2 mRNA in liver (daytime peak)” value is “strongly attenuated”; the “circadian pattern of mRNAs for gluconeogenic genes Pck1 and G6Pc in liver” value is recorded as “substantially altered”.
